The source of these data is patent publication US12208088B2 (Genentech, Inc., priority 2018, dated 2025).

Sequence of HPK1 (Q92918 1-346 limits assumed): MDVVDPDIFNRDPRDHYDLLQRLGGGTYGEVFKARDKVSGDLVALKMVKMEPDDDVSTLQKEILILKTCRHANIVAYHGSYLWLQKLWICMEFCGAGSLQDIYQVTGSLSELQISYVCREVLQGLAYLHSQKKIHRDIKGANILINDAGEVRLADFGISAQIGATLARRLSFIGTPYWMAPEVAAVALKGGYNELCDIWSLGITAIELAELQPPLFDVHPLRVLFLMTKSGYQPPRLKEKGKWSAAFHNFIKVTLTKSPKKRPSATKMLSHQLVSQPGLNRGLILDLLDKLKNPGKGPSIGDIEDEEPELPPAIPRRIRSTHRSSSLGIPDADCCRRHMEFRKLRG

The test deals with HPK1 (Homo sapiens (Human), UniProt Q92918). The test is described as follows: HPK1 Lantha binding assay ("Lanth"). The note with it: binding assays; Morrison Ki fit. The method, boiled down:
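Ki values are from Morrison-equation fitting of 665/615 nm TR-FRET signals, taking enzyme level, tracer level and tracer Kd into account. The assay mix held HPK1 (2 nM), Eu-anti-GST antibody (2 nM) and Tracer222 (15 nM). Incubations were two 1 h steps at 23 °C, on 5-fold serial compound dilutions.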
A word on the Ki: it is a dissociation constant, usually derived from enzyme kinetics or from competition with a known ligand. As to `CC[C@@H]1C[C@@]12CNc1ncc(-c3ccc(N)c(C(=O)N(C)C)c3F)cc12` (single isomer, unassigned) [Compound 243c], the Ki is 63.1 nM.

The molecule `CC[C@H]1C[C@]12CNc1ncc(-c3ccc(N)c(C(=O)N(C)C)c3F)cc12` (single isomer, unassigned) [Compound 243d] returned a Ki of 25.1 nM.

In turn, `Cn1cc(C2CCCCN2C(=O)c2cccc(-c3cnc4c(c3Cl)[C@]3(CC[C@H](O)CC3)CN4)c2F)cn1` (single isomer, unassigned) [Compound 246a] gave a Ki of 10.3 nM.

`Cn1cc(C2CCCCN2C(=O)c2cccc(-c3cnc4c(c3Cl)[C@]3(CC[C@H](O)CC3)CN4)c2F)cn1` (single isomer, unassigned) [Compound 246b] had a Ki of 316 nM.

In turn, `Cn1cc(C2CCCCN2C(=O)c2c(N)ccc(-c3cnc4c(c3)[C@]3(CC[C@H](O)CC3)CN4)c2F)cn1` (single isomer, unassigned) [Compound 253a] came in with a Ki of 23.1 nM.

The molecule `Cn1cc(C2CCCCN2C(=O)c2c(N)ccc(-c3cnc4c(c3Cl)[C@]3(CC[C@H](O)CC3)CN4)c2F)cn1` (single isomer, unassigned) [Compound 254a] had a Ki of 5.2 nM.

In turn, `Cn1cc(C2CCCCN2C(=O)c2c(N)ccc(-c3cnc4c(c3Cl)[C@]3(CC[C@H](O)CC3)CN4)c2F)cn1` (single isomer, unassigned) [Compound 254b] yielded a Ki of 109 nM.

With `CN(C)C(=O)c1c(N)ccc(-c2cnc3c(c2Cl)[C@]2(CC[C@](C)(C#N)C2)CN3)c1F` (single isomer, unassigned) [Compound 261a], the inhibition constant Ki worked out at 4.2 nM.

As for `CN(C)C(=O)c1c(N)ccc(-c2cnc3c(c2Cl)[C@@]2(CC[C@@](C)(C#N)C2)CN3)c1F` (single isomer, unassigned) [Compound 261b], the Ki came out at 37.1 nM.

Molecule `Cc1c(CC#N)ccnc1-c1cccc(-c2cnc3c(c2Cl)[C@]2(CC[C@](C)(C#N)C2)CN3)c1F` (single isomer, unassigned) [Compound 266a] registered an inhibition constant Ki of 65.3 nM.

`Cc1c(CC#N)ccnc1-c1cccc(-c2cnc3c(c2Cl)[C@@]2(CC[C@@](C)(C#N)C2)CN3)c1F` (single isomer, unassigned) [Compound 266b]: the Ki stood at 3.9 nM.

In turn, `Cc1c(CC#N)ccnc1-c1cccc(-c2cnc3c(c2Cl)[C@]2(CC[C@](C)(C(N)=O)C2)CN3)c1F` (single isomer, unassigned) [Compound 267a] had a Ki of 110 nM.

Regarding `Cc1c(CC#N)ccnc1-c1cccc(-c2cnc3c(c2Cl)[C@@]2(CC[C@@](C)(C(N)=O)C2)CN3)c1F` (single isomer, unassigned) [Compound 267b], affinity was put at a Ki of 0.39 nM.

`CN(C)CCN(C)C(=O)c1c(N)ccc(-c2cnc3c(c2Cl)[C@]2(CC[C@](C)(C#N)C2)CN3)c1F` (single isomer, unassigned) [Compound 271a]: the Ki came out at 24.9 nM.

For `Cc1c(CC#N)ccnc1-c1cc(N)cc(-c2cnc3c(c2Cl)[C@]2(CC[C@](C)(C#N)C2)CN3)c1` (single isomer, unassigned) [Compound 274a], the Ki turned out to be 13.3 nM.

On to `Cc1c(CC#N)ccnc1-c1cc(N)cc(-c2cnc3c(c2Cl)[C@]2(CC[C@](C)(C#N)C2)CN3)c1` (single isomer, unassigned) [Compound 274b], for which the Ki was found to be 0.9 nM.

Regarding `O=C1CCCCN1c1cccc2c(-c3cnc4c(c3Cl)[C@]3(CC[C@H](O)C3)CN4)c[nH]c12` (single isomer, unassigned) [Compound 300a], the affinity, expressed as Ki, was 27 nM.

Turning to `O=C1CCCCN1c1cccc2c(-c3cnc4c(c3Cl)[C@@]3(CC[C@@H](O)C3)CN4)c[nH]c12` (single isomer, unassigned) [Compound 300b], the Ki stood at 270 nM.

The molecule `CO[C@@H]1C[C@@]2(CNc3ncc(-c4ccc(N)c(C(=O)N(C)C)c4F)c(Cl)c32)C[C@H]1O` (stereo in doubt) [Compound 140a, 6-Amino-3-((1R,3S,4S)-4′-chloro-3-hydroxy-4-methoxy-1′,2′-dihydrospiro[cyclopentane-1,3′-pyrrolo[2,3-b]pyridin]-5′-yl)-2-fluoro-N,N-dimethylbenzamide] displayed a Ki of 339 nM.

`CO[C@H]1C[C@]2(CNc3ncc(-c4ccc(N)c(C(=O)N(C)C)c4F)c(Cl)c32)C[C@@H]1O` (stereo in doubt) [Compound 140b, 6-Amino-3-((1S,3R,4R)-4′-chloro-3-hydroxy-4-methoxy-1′,2′-dihydrospiro[cyclopentane-1,3′-pyrrolo[2,3-b]pyridin]-5′-yl)-2-fluoro-N,N-dimethylbenzamide]: the Ki amounted to 62.5 nM.

For `CN(C)C(=O)c1c(N)ccc(-c2cnc3c(c2Cl)[C@]2(CN3)CC(O)C(n3ccnn3)C2)c1F` (stereo in doubt) [Compound 146a, 6-Amino-3-((1R,3S,4S)-4′-chloro-3-hydroxy-4-(1H-1,2,3-triazol-1-yl)-1′,2′-dihydrospiro[cyclopentane-1,3′-pyrrolo[2,3-b]pyridin]-5′-yl)-2-fluoro-N,N-dimethylbenzamide], the Ki came out at 494 nM.

Regarding `CN(C)C(=O)c1cc(-c2cnc3c(c2)C2(CCCC2)CN3)ccc1N` [Compound 1, 2-Amino-5-(1′,2′-dihydrospiro[cyclopentane-1,3′-pyrrolo[2,3-b]pyridin]-5′-yl)-N,N-dimethylbenzamide], the affinity, expressed as Ki, was 28.8 nM.

In turn, `CN(C)C(=O)c1cc(-c2cnc3c(c2)C2(CC2)CN3)ccc1N` [Compound 2, 2-Amino-5-(1′,2′-dihydrospiro[cyclopropane-1,3′-pyrrolo[2,3-b]pyridin]-5′-yl)-N,N-dimethylbenzamide] returned a Ki of 35.6 nM.

`O=C1COCCN1c1cccc(-c2cnc3c(c2)C2(CC2)CN3)c1` [Compound 3, 4-(3-(1′,2′-Dihydrospiro[cyclopropane-1,3′-pyrrolo[2,3-b]pyridin]-5′-yl)phenyl)morpholin-3-one] displayed a Ki of 40.3 nM.

`CN(C)C(=O)c1cc(-c2cnc3c(c2)C2(CCC2)CN3)ccc1N` [Compound 4, 2-Amino-5-(1′,2′-dihydrospiro[cyclobutane-1,3′-pyrrolo[2,3-b]pyridin]-5′-yl)-N,N-dimethylbenzamide]: the Ki is 71.7 nM.

`O=C1COCCN1c1cccc(-c2cnc3c(c2)C2(CCC2)CN3)c1` [Compound 5, 4-(3-(1′,2′-Dihydrospiro[cyclobutane-1,3′-pyrrolo[2,3-b]pyridin]-5′-yl)phenyl)morpholin-3-one] had a Ki of 98.7 nM.

In turn, `CN(C)C(=O)c1c(N)ccc(-c2cnc3c(c2)C2(CC2)CN3)c1F` [Compound 6, 6-Amino-3-(1′,2′-dihydrospiro[cyclopropane-1,3′-pyrrolo[2,3-b]pyridin]-5′-yl)-2-fluoro-N,N-dimethylbenzamide] came in with a Ki of 22.7 nM.

`CN(CCO)C(=O)c1c(N)ccc(-c2cnc3c(c2)C2(CC2)CN3)c1F` [Compound 7, 6-amino-3-(1′,2′-dihydrospiro[cyclopropane-1,3′-pyrrolo[2,3-b]pyridin]-5′-yl)-2-fluoro-N-(2-hydroxyethyl)-N-methylbenzamide]: affinity was put at a Ki of 21.6 nM.

With `CN(C)C(=O)c1c(N)ccc(-c2cnc3c(c2Cl)C2(CC2)CN3)c1F` [Compound 8, 6-Amino-3-(4′-chloro-1′,2′-dihydrospiro[cyclopropane-1,3′-pyrrolo[2,3-b]pyridin]-5′-yl)-2-fluoro-N,N-dimethylbenzamide], the inhibition constant Ki was found to be 7.71 nM.

Take `O=C1COCCN1c1cccc(-c2cnc3c(c2)C2(CC2)CN3)c1F` [Compound 9, 4-(3-(1′,2′-Dihydrospiro[cyclopropane-1,3′-pyrrolo[2,3-b]pyridin]-5′-yl)-2-fluorophenyl)morpholin-3-one]: the affinity, expressed as Ki, was 38.9 nM.

For the molecule `Nc1cc(-c2cnc3c(c2)C2(CC2)CN3)cc(-c2ncccc2CO)c1` [Compound 10, (2-(3-Amino-5-(1′,2′-dihydrospiro[cyclopropane-1,3′-pyrrolo[2,3-b]pyridin]-5′-yl)phenyl)pyridin-3-yl)methanol], the affinity, expressed as Ki, was 12.7 nM.

Turning to `NS(=O)(=O)Cc1ccc(-c2cnc3c(c2)C2(CC2)CN3)cc1` [Compound 11, (4-(1′,2′-Dihydrospiro[cyclopropane-1,3′-pyrrolo[2,3-b]pyridin]-5′-yl)phenyl)methanesulfonamide], the Ki was 91.2 nM.

For `CN(CCO)C(=O)c1cccc(-c2cnc3c(c2)C2(CC2)CN3)c1F` [Compound 12, 3-(1′,2′-Dihydrospiro[cyclopropane-1,3′-pyrrolo[2,3-b]pyridin]-5′-yl)-2-fluoro-N-(2-hydroxyethyl)-N-methylbenzamide], the Ki stood at 37.6 nM.

Turning to `CC1(C)C(=O)Nc2ccc(-c3cnc4c(c3)C3(CC3)CN4)cc21` [Compound 13, 5-(1′,2′-dihydrospiro[cyclopropane-1,3′-pyrrolo[2,3-b]pyridin]-5′-yl)-3,3-dimethylindolin-2-one], affinity was put at a Ki of 21.6 nM.

In turn, `CN(C)C(=O)c1c(N)ccc(-c2cnc3c(c2)C2(CC2)CN3)c1Cl` [Compound 14, 6-amino-2-chloro-3-(1′,2′-dihydrospiro[cyclopropane-1,3′-pyrrolo[2,3-b]pyridin]-5′-yl)-N,N-dimethylbenzamide] came in with a Ki of 863 nM.

As for `CC1Nc2ncc(-c3ccc(N)c(C(=O)N(C)C)c3F)cc2C12CC2` (centres unmarked) [Compound 15, 6-Amino-2-fluoro-N,N-dimethyl-3-(2′-methyl-1′,2′-dihydrospiro[cyclopropane-1,3′-pyrrolo[2,3-b]pyridin]-5′-yl)benzamide], the Ki came to 122 nM.

Molecule `CN(C)C(=O)c1cc(CO)cc(-c2cnc3c(c2)C2(CC2)CN3)c1` [Compound 16, 3-(1′,2′-dihydrospiro[cyclopropane-1,3′-pyrrolo[2,3-b]pyridin]-5′-yl)-5-(hydroxymethyl)-N,N-dimethylbenzamide] returned a Ki of 521 nM.

`Nc1ccc(-c2cnc3c(c2)C2(CC2)CN3)c(F)c1C(=O)N1CCCC1CO` (centres unmarked) [Compound 17, (6-amino-3-(1′,2′-dihydrospiro[cyclopropane-1,3′-pyrrolo[2,3-b]pyridin]-5′-yl)-2-fluorophenyl)(2-(hydroxymethyl)pyrrolidin-1-yl)methanone] came in with a Ki of 32.8 nM.
